Results as given in patent US20230141198A1, “PYRAZOL[…]” (THE KITASATO INSTITUTE, priority 2019, published 2023).

Legend:
Type in all cases: cell-based
[1] = target: T1, human opioid δ receptor (Homo sapiens, UniProt P41143); experiment: Opioid receptor function test (agonist activity, Lance Ultra cAMP kit), δ receptor; settings: for Emax: maximum reaction relative to control drug SNC 80 taken as 100%
T1 construct: host or cells: CHO cells
Text: (§1) Opioid Receptor Function Test
(§2) Functional activity of the compound provided by the present invention on μ, δ, and κ opioid receptors was examined.
(§3) Method: Using a Lance Ultra cAMP kit (Perkin Elmer), the functional activity was examined by a predetermined method. In evaluation of agonist activity, CHO cells expressing each of human opioid receptors (δ, μ, and κ: accession numbers and catalog numbers are described below) were reacted with a test compound in an assay buffer (1× HBSS, […], pH 7.4, […] isobutylmethylxanthine (IBMX), 7.5% BSA) in the presence of 10 μM forskolin for 30 minutes. Subsequently, a cAMP detection reagent in the kit was added. One hour later, time-resolved fluorescence measurement was performed using an EnVision plate reader (Perkin Elmer). The test compound and each control drug (δ: SNC 80, μ: DAMGO, κ: U-69593) were evaluated in a concentration range of 10^−12 to 10^−5 M. A dose reaction curve of the test compound was determined from a fluorescence value at 665 nm, and an EC50 value and an Emax value were calculated. The Emax value was determined as a ratio of a maximum reaction of the test compound when a maximum reaction of each control drug was taken as 100%.

[2] = target: T2, human opioid κ receptor (Homo sapiens, UniProt P41145); experiment: Opioid receptor function test (agonist activity, Lance Ultra cAMP kit), κ receptor; settings: for Emax: maximum reaction relative to control drug U-69593 taken as 100%
T2 construct: host or cells: CHO cells
Text: as §1, §2, §3

[3] = target: T3, human opioid μ receptor (Homo sapiens, UniProt P35372); experiment: Opioid receptor function test (agonist activity, Lance Ultra cAMP kit), μ receptor; settings: for Emax: maximum reaction relative to control drug DAMGO taken as 100%
T3 construct: host or cells: CHO cells
Text: as §1, §2, §3

T1 sequence (P41143 whole entry): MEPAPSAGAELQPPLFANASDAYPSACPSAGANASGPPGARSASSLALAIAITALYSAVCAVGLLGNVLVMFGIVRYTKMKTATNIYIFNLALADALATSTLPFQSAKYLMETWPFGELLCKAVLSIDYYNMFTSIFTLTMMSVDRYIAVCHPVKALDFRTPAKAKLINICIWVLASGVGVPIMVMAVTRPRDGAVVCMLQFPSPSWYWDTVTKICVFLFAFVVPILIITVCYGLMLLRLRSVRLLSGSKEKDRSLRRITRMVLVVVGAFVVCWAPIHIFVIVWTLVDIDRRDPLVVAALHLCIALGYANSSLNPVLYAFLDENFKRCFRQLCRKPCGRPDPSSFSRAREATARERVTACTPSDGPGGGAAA
T3 sequence (P35372 whole entry): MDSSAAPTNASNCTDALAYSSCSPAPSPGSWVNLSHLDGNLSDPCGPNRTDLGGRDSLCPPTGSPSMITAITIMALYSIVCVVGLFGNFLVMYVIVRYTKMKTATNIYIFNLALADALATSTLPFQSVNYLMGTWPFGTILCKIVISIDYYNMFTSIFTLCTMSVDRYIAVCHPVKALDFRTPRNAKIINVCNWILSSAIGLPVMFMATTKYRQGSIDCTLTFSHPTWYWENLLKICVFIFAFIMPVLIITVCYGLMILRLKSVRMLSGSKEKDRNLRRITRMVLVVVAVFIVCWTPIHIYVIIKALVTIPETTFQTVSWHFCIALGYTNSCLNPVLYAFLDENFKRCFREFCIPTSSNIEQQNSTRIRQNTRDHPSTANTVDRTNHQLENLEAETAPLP
T2 sequence (P41145 whole entry): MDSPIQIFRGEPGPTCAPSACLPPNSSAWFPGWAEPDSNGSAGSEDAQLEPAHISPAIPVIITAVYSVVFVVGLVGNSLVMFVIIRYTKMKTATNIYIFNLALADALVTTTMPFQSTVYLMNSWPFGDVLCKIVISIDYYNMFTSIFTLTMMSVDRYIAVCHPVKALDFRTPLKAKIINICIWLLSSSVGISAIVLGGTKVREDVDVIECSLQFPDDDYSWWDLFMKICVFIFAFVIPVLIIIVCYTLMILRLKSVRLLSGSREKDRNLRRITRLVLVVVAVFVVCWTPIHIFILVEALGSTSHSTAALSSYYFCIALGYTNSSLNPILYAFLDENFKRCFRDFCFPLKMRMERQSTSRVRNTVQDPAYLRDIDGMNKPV

SMILES	EC50 [1]	Emax [1]	EC50 [2]	Emax [2]	EC50 [3]	Emax [3]
Cc1[nH]nc2c1C[C@@]1(O)[C@H]3Cc4ccc(O)cc4[C@@]1(CCN3CC1CC1)C2 [34, 35]	1.3 nM	42%				
Cc1c2c(nn1-c1ccccc1)C[C@]13CCN(CC4CC4)[C@H](Cc4ccc(O)cc41)[C@]3(O)C2 [Compound 20, (6R,6aS,11aR)-14-(cyclopropylmethyl)-8-methyl-9-phenyl-5,6,9,11-tetrahydro-6,11a-(epiminoethano)naphtho[2,1-f]indazole-2,6a(7H)-diol]	0.89 nM	86%	8.7 nM	12%	8.1 nM	10%
Cc1nn(-c2ccccc2)c2c1C[C@@]1(O)[C@H]3Cc4ccc(O)cc4[C@@]1(CCN3CC1CC1)C2 [Compound 21, (6R,6aS,11aR)-14-(cyclopropylmethyl) methyl-10-phenyl-5,6,10,11-tetrahydro-6,11a-(epiminoethano)naphtho[2,1-f]indazole-2,6a(7H)-diol]	0.76 nM	81%				
Cc1nn(-c2ccccn2)c2c1C[C@@]1(O)[C@H]3Cc4ccc(O)cc4[C@@]1(CCN3CC1CC1)C2 [Compound 27, (6R,6aS,11aR)-14-(cyclopropylmethyl)-8-methyl-10-(pyridin-2-yl)-5,6,10,11-tetrahydro-6,11a-(epiminoethano)naphtho[2,1-f]indazole-2,6a(7H)-diol]	0.83 nM	51%				
Cc1nn(-c2ccncc2)c2c1C[C@@]1(O)[C@H]3Cc4ccc(O)cc4[C@@]1(CCN3CC1CC1)C2 [Compound 28, (6R,6aS,11aR)-14-(cyclopropylmethyl)-8-methyl-10-(pyridin-4-yl)-5,6,10,11-tetrahydro-6,11a-(epiminoethano)naphtho[2,1-f]indazole-2,6a(7H)-diol]	0.33 nM	101%	58 nM	15%		
Cc1nn(C2CCCCC2)c2c1C[C@@]1(O)[C@H]3Cc4ccc(O)cc4[C@@]1(CCN3CC1CC1)C2 [Compound 32, (6R,6aS,11aR)-10-cyclohexyl-14-(cyclopropylmethyl)-8-methyl-5,6,10,11-tetrahydro-6,11a-(epiminoethano)naphtho[2,1-f]indazole-2,6a(7H)-diol]	0.089 nM	111%				
Cc1c2c(nn1C1CCCCC1)C[C@]13CCN(CC4CC4)[C@H](Cc4ccc(O)cc41)[C@]3(O)C2 [Compound 33, (6R,6aS,11aR)-9-cyclohexyl-14-(cyclopropylmethyl)-8-methyl-5,6,9,11-tetrahydro-6,11a-(epiminoethano)naphtho[2,1-f]indazole-2,6a(7H)-diol]	0.14 nM	108%	44 nM	13%		
Cc1nn(C(=O)c2ccccc2)c2c1C[C@@]1(O)[C@H]3Cc4ccc(O)cc4[C@@]1(CCN3CC1CC1)C2 [Compound 36, ((6R,6aS,11aR)-14-(cyclopropylmethyl)-2,6a-dihydroxy-8-methyl-6,6a,7,11-tetrahydro-6,11a-(epiminoethano)naphtho[2,1-f]indazol-10(5H)-yl)(phenyl)methanone]	3.4 nM	65%				
Cc1c2c(nn1CC1CCCCC1)C[C@]13CCN(CC4CC4)[C@H](Cc4ccc(O)cc41)[C@]3(O)C2 [Compound 42, (6R,6aS,11aR)-9-(cyclohexylmethyl)-14-(cyclopropylmethyl)-8-methyl-5,6,9,11-tetrahydro-6,11a-(epiminoethano)naphtho[2,1-f]indazole-2,6a(7H)-diol]	1 nM	90%				
Cc1nn(CC2CC2)c2c1C[C@@]1(O)[C@H]3Cc4ccc(O)cc4[C@@]1(CCN3CC1CC1)C2 [Compound 45, (6R,6aS,11aR)-10,14-bis(cyclopropylmethyl)-8-methyl-5,6,10,11-tetrahydro-6,11a-(epiminoethano)naphtho[2,1-f]indazole-2,6a(7H)-diol]	0.75 nM	72%				
Cc1c2c(nn1CC1CC1)C[C@]13CCN(CC4CC4)[C@H](Cc4ccc(O)cc41)[C@]3(O)C2 [Compound 46, (6R,6aS,11aR)-9,14-bis(cyclopropylmethyl)-8-methyl-5,6,9,11-tetrahydro-6,11a-(epiminoethano)naphtho[2,1-f]indazole-2,6a(7H)-diol]	0.17 nM	105%				
Cc1nn(-c2cccnc2)c2c1C[C@@]1(O)[C@H]3Cc4ccc(O)cc4[C@@]1(CCN3CC1CC1)C2 [Compound 49, (6R,6aS,11aR)-14-(cyclopropylmethyl)-8-methyl-10-(pyridin-3-yl)-5,6,10,11-tetrahydro-6,11a-(epiminoethano)naphtho[2,1-f]indazole-2,6a(7H)-diol]	0.5 nM	73%				
Cc1nn(-c2nccs2)c2c1C[C@@]1(O)[C@H]3Cc4ccc(O)cc4[C@@]1(CCN3CC1CC1)C2 [Compound 51, (6R,6aS,11aR)-14-(cyclopropylmethyl)-8-methyl-10-(thiazol-2-yl)-5,6,10,11-tetrahydro-6,11a-(epiminoethano)naphtho[2,1-f]indazole-2,6a(7H)-diol]	0.94 nM	54%				
Cc1nn(-c2ccccc2)c2c1C[C@@]1(O)[C@H]3Cc4ccc(O)cc4[C@@]1(CCN3C)C2 [Compound 61, (6R,6aS,11aR)-8,14-dimethyl-10-phenyl-5,6,10,11-tetrahydro-6,11a-(epiminoethano)naphtho[2,1-f]indazole-2,6a(7H)-diol]	15 nM	91%	1030 nM	14%	257 nM	63%
O=c1c2c([nH]n1-c1ccccc1)C[C@]13CCN(CC4CC4)[C@H](Cc4ccc(O)cc41)[C@]3(O)C2 [Compound 68, (6R,6aS,11aR)-14-(cyclopropylmethyl)-2,6a-dihydroxy-9-phenyl-6,6a,7,9,10,11-hexahydro-6,11a-(epiminoethano)naphtho[2,1-f]indazol-8(5H)-one]	1.4 nM	100%				
Cc1nn(C2CC2)c2c1C[C@@]1(O)[C@H]3Cc4ccc(O)cc4[C@@]1(CCN3CC1CC1)C2 [Compound 82, (6R,6aS,11aR)-10-cyclopropyl-14-(cyclopropylmethyl)-8-methyl-5,6,10,11-tetrahydro-6,11a-(epiminoethano)naphtho[2,1-f]indazole-2,6a(7H)-diol]	0.93 nM	39%				
Cc1c2c(nn1C1CC1)C[C@]13CCN(CC4CC4)[C@H](Cc4ccc(O)cc41)[C@]3(O)C2 [Compound 83, (6R,6aS,11aR)-9-cyclopropyl-14-(cyclopropylmethyl)-8-methyl-5,6,9,11-tetrahydro-6,11a-(epiminoethano)naphtho[2,1-f]indazole-2,6a(7H)-diol]	0.13 nM	99%	50 nM	30%	11 nM	16%
Cc1nn(C2CCC2)c2c1C[C@@]1(O)[C@H]3Cc4ccc(O)cc4[C@@]1(CCN3CC1CC1)C2 [Compound 84, (6R,6aS,11aR)-10-cyclobutyl-14-(cyclopropylmethyl)-8-methyl-5,6,10,11-tetrahydro-6,11a-(epiminoethano)naphtho[2,1-f]indazole-2,6a(7H)-diol]	0.34 nM	95%				
Cc1c2c(nn1C1CCC1)C[C@]13CCN(CC4CC4)[C@H](Cc4ccc(O)cc41)[C@]3(O)C2 [Compound 85, (6R,6aS,11aR)-9-cyclobutyl-14-(cyclopropylmethyl) methyl-5,6,9,11-tetrahydro-6,11a-(epiminoethano)naphtho[2,1-f]indazole-2,6a(7H)-diol]	0.092 nM	104%	17 nM	25%	16 nM	26%
Cc1nn(C2CCCC2)c2c1C[C@@]1(O)[C@H]3Cc4ccc(O)cc4[C@@]1(CCN3CC1CC1)C2 [Compound 86, (6R,6aS,11aR)-10-cyclopentyl-14-(cyclopropylmethyl)-8-methyl-5,6,10,11-tetrahydro-6,11a-(epiminoethano)naphtho[2,1-f]indazole-2,6a(7H)-diol]	0.12 nM	101%				
Cc1nn(C2CCOCC2)c2c1C[C@@]1(O)[C@H]3Cc4ccc(O)cc4[C@@]1(CCN3CC1CC1)C2 [Compound 88, (6R,6aS,11aR)-14-(cyclopropylmethyl)-8-methyl-10-(tetrahydro-2H-pyran-4-yl)-5,6,10,11-tetrahydro-6,11a-(epiminoethano)naphtho[2,1-f]indazole-2,6a(7H)-diol]	0.086 nM	113%				
Cc1nn(C2CCSCC2)c2c1C[C@@]1(O)[C@H]3Cc4ccc(O)cc4[C@@]1(CCN3CC1CC1)C2 [Compound 89, (6R,6aS,11aR)-14-(cyclopropylmethyl)-8-methyl-10-(tetrahydro-2H-thiopyran-4-yl)-5,6,10,11-tetrahydro-6,11a-(epiminoethano)naphtho[2,1-f]indazole-2,6a(7H)-diol]	0.069 nM	112%				
Cc1c2c(nn1C1CCSCC1)C[C@]13CCN(CC4CC4)[C@H](Cc4ccc(O)cc41)[C@]3(O)C2 [Compound 90, (6R,6aS,11aR)-14-(cyclopropylmethyl)-8-methyl-9-(tetrahydro-2H-thiopyran-4-yl)-5,6,9,11-tetrahydro-6,11a-(epiminoethano)naphtho[2,1-f]indazole-2,6a(7H)-diol]	0.092 nM	116%	8.1 nM	15%		
